# Article doi:10.1101/2025.10.10.681657 (bioRxiv, 2025)
# Entries after “also recorded” stand apart in the source; their conditions may differ.
# Key:
# [1] = biological target: U4/U6 snRNA construct (92 nt); experiment: SPR binding to U4/U6 snRNA construct (92 nt); design: species or system yeast; settings: 92 nt RNA, steady-state fit; >100 = signal appeared at 100 μM but failed to fit
# Experimental: (§1) SPR experiments were carried out using an SPR optical biosensor (BIAcore 3000, Cytiva, USA) based on reported methods with minor modifications.[35] To avoid RNA degradation during long-time injections, the whole microfluidic system was washed by priming 50% RNase Zap buffer and RNase-free water one day before the experiments. Then, by using running buffer (1xPBS, pH7.4, 0.005% Tween 20, 5% DMSO) at a flow rate of 5 μL/min, the binding assays were performed. In brief, a CM5 chip surface coated with carboxylated dextran was activated by standard EDC/NHS amine-coupling protocol and then conjugated with streptavidin (200 ng/mL in 10 mM sodium acetate buffer, pH 4.5) for 30 min, resulting in 4000~6000 response units (RUs) signal. After streptavidin conjugation, the surface was deactivated (1 M ethanolamine, pH 8.5) for 10 min and regenerated (10 mM NaOH) for 2 min to remove unbound SA. Then, the folded U4/U6 RNA with biotin-label at 5′ end was prepared (according to the above-mentioned method) at 5 μM and injected in flow-cell (Fc) 2 for 30 min while Fc1 was kept blank as a reference. Then, the system continued flowing the running buffer until the baseline was stable before future steps.
# To detect binding between small molecules and U4/U6 snRNA, a 50 μL compound solution was applied to both Fc1 and Fc2 channels simultaneously at a higher flow rate (25 μL/min). The binding curve contains 120 s association and 200 s dissociation. A pulse of 10 mM NaOH injection was used for regeneration if needed. To measure the dissociation constant (KD), titrations of compound solutions with a serial dilution were applied. The KD value was then calculated by fitting the binding curves based on a steady-state model in BIAevaluation 4.0 software and plotted in GraphPad Prism 9.
# [2] = tested on: 79 nt RNA (lacking the K-turn); experiment: SMM screening, 79 nt RNA; assay type: binding, yeast; settings: Z-score cutoff 3
# Experimental: (§2) For high-throughput screening using SMM, the microarray slides were prepared based on previously reported methods using a robotic microarray printer (Arrayjet, UK).[34] Each slide contained ~7,000 compounds with duplicate spots of each sample. To perform screening, the SMM slide surface was first blocked with 500 nM yeast total tRNA (Invitrogen) in screening buffer (1xPBS, pH 7.4, 0.005% Tween 20) for 2 h prior to target RNA incubation. Then, the 5′-Cy5-labeled U4/U6 RNA construct was folded as above described, followed by buffer exchange to screening buffer. After annealing, the RNA was diluted to 50 nM in screening buffer and incubated with the microarray for another 2 h. After that, the glass slide was gently washed with PBST, PBS, and ddH2O three times in each buffer solution and dried in a centrifuge at 1,700 g for 2 min. Finally, the microarray was imaged with an InnoScan 1100 AL fluorescence scanner (Innopsys, France) at 635 nm and the hits were identified based on the quantified fluorescent intensity of each spot.
# [3] = tested on: U4/U6 snRNA construct 32 nt (No. 4), Cy5 (RNA, hairpin) CGCAUAUCAGUGAGGAUUCGUCCGAGAUUGUG; experiment: small molecule microarray; settings: 1x PBS; pH 7.4, 0.005% Tween 20; 50 nM RNA; immobilised compound; Z-score cutoff 3
# [4] = tested on: U4/U6 snRNA construct 92 nt (WT, No. 1) (RNA, junction) GGCCUUAUGCACGGGAAAUACGCAUAUCAGUGAGGAUUCGUCCGAGAUUGUGUUUUUGCUGGUGUAAAUCAGCAGUUCCCCUGCAUAAGGCU; experiment: SPR steady state; settings: 1x PBS; pH 7.4, 0.005% Tween 20, 5% DMSO
# [5] = tested on: U4/U6 snRNA construct 92 nt (WT, No. 1), Cy5 (RNA, junction) GGCCUUAUGCACGGGAAAUACGCAUAUCAGUGAGGAUUCGUCCGAGAUUGUGUUUUUGCUGGUGUAAAUCAGCAGUUCCCCUGCAUAAGGCU; experiment: small molecule microarray; settings: 1x PBS; pH 7.4, 0.005% Tween 20; 50 nM RNA; immobilised compound; Z-score cutoff 3
# [6] = tested on: U4U6 RNA for SHAPE-MaP (T7 transcript of Template) (RNA, junction) GGGCCUUCGGGCCAAGGCCUUAUGCACGGGAAAUACGCAUAUCAGUGAGGAUUCGUCCGAGAUUGUGUUUUUGCUGGUGUAAAUCAGCAGUUCCCCUGCAUAAGGCUUCGAUCCGGUUCGCCGGAUCCAAAUCGGGCUUCGGUCCGGUUC; experiment: SHAPE-MaP (2A3); settings: KCl (3.3x folding buffer: 1023 mM); potassium phosphate pH 7.0, EDTA; 100 μM compound
# [7] = tested on: K-turn-containing RNAs (92 nt, 68 nt, and 32 nt); experiment: SMM screening, K-turn-containing RNAs; assay type: binding, yeast; settings: Z-score cutoff 3
# Experimental: as §2
# [8] = tested on: U4/U6 snRNA construct 68 nt (No. 3), Cy5 (RNA, junction) GGGAAAUACGCAUAUCAGUGAGGAUUCGUCCGAGAUUGUGUUUUUGCUGGUGUAAAUCAGCAGUUCCC; experiment: small molecule microarray; settings: 1x PBS; pH 7.4, 0.005% Tween 20; 50 nM RNA; immobilised compound; Z-score cutoff 3
# [9] = tested on: U4/U6 snRNA construct 92 nt (WT, No. 1), unlabeled (RNA, junction) GGCCUUAUGCACGGGAAAUACGCAUAUCAGUGAGGAUUCGUCCGAGAUUGUGUUUUUGCUGGUGUAAAUCAGCAGUUCCCCUGCAUAAGGCU; experiment: CD melting (260 nm); settings: PBS; 5 μM RNA, 100 μM compound, 5% DMSO
# [10] = tested on: U4/U6 snRNA construct 79 nt (No. 2, K-turn disrupted), Cy5 (RNA, junction) GGCCUUAUGCACGGGAAAUACGCAUAUCGUAAGAUUGUGUUUUUGCUGGUGUAAAUCAGCAGUUCCCCUGCAUAAGGCU; experiment: small molecule microarray; settings: 1x PBS; pH 7.4, 0.005% Tween 20; 50 nM RNA; immobilised compound; Z-score cutoff 3
# [11] = tested on: U4/U6 snRNA construct 79 nt (No. 2, K-turn disrupted) (RNA, junction) GGCCUUAUGCACGGGAAAUACGCAUAUCGUAAGAUUGUGUUUUUGCUGGUGUAAAUCAGCAGUUCCCCUGCAUAAGGCU; experiment: SPR; settings: 1x PBS; pH 7.4, 0.005% Tween 20, 5% DMSO; no binding up to 50 μM
# [12] = biological target: U4/U6 92-nt RNA construct; experiment: MST binding to U4/U6 92-nt RNA; design: species or system yeast; settings: 50 nM Cy5-labeled 92-nt RNA
# Experimental: (§3) MST experiments were conducted using a Monolith NT.115 system (NanoTemper, Germany) as described previously.[36] 5′-Cy5-labeled U4/U6 RNA was folded as above-mentioned and diluted to 100 nM (2x) in a working buffer. For RNA-small molecule interactions, compounds were prepared in the running buffer (with 10% DMSO) and mixed with RNA in a 1:1 (v/v) ratio, resulting in 50 nM RNA and 5% DMSO in the final solution. Then, MST scanning was performed in triplicate using a red LED channel to obtain the binding signals. Binding affinity (KD) was determined by fitting the concentration-dependent curve in the T-jump region according to the 1:1 Langmuir binding model (MO.Affinity Analysis v2.3).
# [13] = tested on: U4U6 RNA for SHAPE-MaP (T7 transcript of Template) (RNA, junction) GGGCCUUCGGGCCAAGGCCUUAUGCACGGGAAAUACGCAUAUCAGUGAGGAUUCGUCCGAGAUUGUGUUUUUGCUGGUGUAAAUCAGCAGUUCCCCUGCAUAAGGCUUCGAUCCGGUUCGCCGGAUCCAAAUCGGGCUUCGGUCCGGUUC; experiment: SHAPE-MaP / deltaSHAPE (2A3); settings: KCl (3.3x folding buffer: 1023 mM); potassium phosphate pH 7.0, EDTA; 100 μM compound
# [14] = tested on: U4/U6 79-nt snRNA construct; experiment: SPR binding test with 79 nt RNA lacking the K-turn; design: species or system yeast; settings: 79 nt RNA that disrupts the 5′ SL; until 50 μM
# Experimental: as §1, with “Then, the folded U4/U6 RNA with biotin-label at 5′ end was prepared (according to the above-mentioned method) at 5 μM and injected in flow-cell (Fc) 2 for 30 min while Fc1 was kept blank as a reference. Then, the system continued flowing the running buffer until the baseline was stable before future steps.” left out
# To detect binding between small molecules and U4/U6 snRNA, a 50 μL compound solution was applied to both Fc1 and Fc2 channels simultaneously at a higher flow rate (25 μL/min). […] The KD value was then calculated by fitting the binding curves based on a steady-state model in BIAevaluation 4.0 software and plotted in GraphPad Prism 9.
# [15] = tested on: Snu13-U4/U6 RNA interaction; experiment: EMSA of Snu13-U4/U6 RNA complex; assay type: biochemical, yeast; settings: 1 μM Snu13, compound 0.5 to 20 μM, gel band quantification; read-out: IC50 (RNA-protein complex formation)
# Experimental: The 5′-end Cy5 labeled U4U6 RNA in 11.25 mM KPO4 pH 7.0, 310 mM KCl, and 5 mM EDTA was folded based on the above-mentioned method. The folded RNA was incubated with 1 μM Snu13 protein in the buffer containing 20 mM Tris-Cl pH 7.6, 150 mM NaCl, and 0.1% of Triton X-100 and 2 mM DTT for 30 min at room temperature. Then the compound (0.5 μM to 20 μM) was added to the samples and incubated at room temperature for 15 min. The samples were loaded into the 8% native PAGE gel and visualized by AMERSHAM TYPHOON Biomolecular Imager. Image J software was used for image processing. RNA-protein complex formation in the presence of increasing concentration of compound 22 was calculated by quantifying the higher molecular weight band intensity and normalized to the band intensity of RNA-protein complex in the absence of compound. Values reported are the average of three replicates. The half-maximal inhibitory concentration (IC50) was determined by fitting the data in inhibitor dose–response curves in GraphPad Prism 9. Quantitative data were presented as the mean ± SEM.
# [16] = tested on: U4/U6 snRNA construct 92 nt (WT, No. 1), Cy5 (RNA, junction) GGCCUUAUGCACGGGAAAUACGCAUAUCAGUGAGGAUUCGUCCGAGAUUGUGUUUUUGCUGGUGUAAAUCAGCAGUUCCCCUGCAUAAGGCU; experiment: MST (T-jump, 1:1 fit); settings: running buffer, 5% DMSO, 50 nM RNA
# [17] = tested on: U4/U6 snRNA construct 92 nt (WT, No. 1), Cy5 (RNA, junction) GGCCUUAUGCACGGGAAAUACGCAUAUCAGUGAGGAUUCGUCCGAGAUUGUGUUUUUGCUGGUGUAAAUCAGCAGUUCCCCUGCAUAAGGCU; experiment: EMSA; settings: 150 mM NaCl; 20 mM Tris-Cl pH 7.6, 0.1% Triton X-100, 2 mM DTT; 1 μM Snu13 protein displaced
# [18] = tested on: Snu13-U4/U6 RNA interaction; experiment: KD shift assay by MST (protein-RNA inhibition); assay type: binding, yeast; settings: 10 μM compound vs no compound
# Experimental: as §3
# For the protein-RNA inhibition assay, Snu13 protein was prepared in the running buffer (10 mM HEPES, pH 7.4, 150 mM NaCl, and 0.005% Tween 20) at different concentrations ranging from 0 μM to 5 μM. Meanwhile, a compound at a designated concentration was added to the annealed RNA solution. Then, the test solutions were prepared by 1:1 (v/v) mixing the protein and RNA-small molecule samples, followed by the standard MST procedure mentioned above.
# [19] = tested on: NHP2L1 (Snu13) and U4 5′ SL; design: method as in PMID 28985478; settings: cited from earlier work
# Snu13 = biological target: T1, Snu13 (yeast (species ), UniProt P39990 1-126); experiment: MST; no compound; 50 nM RNA; MST: 10 mM HEPES pH 7.4, 150 mM NaCl, 0.005% Tween 20, 50 nM RNA (protein buffer, mixed 1:1 with RNA); EMSA: 20 mM Tris-Cl pH 7.6, 150 mM NaCl, 0.1% Triton X-100, 2 mM DTT, room temperature, 8% native PAGE; RNA folded in 11.25 mM K-phosphate pH 7.0, 310 mM KCl, 5 mM EDTA; settings: label: 5'-Cy5; folded single strand; three-way junction, U4 5' stem-loop with 5x2 internal loop (K-turn)
# T1 sequence: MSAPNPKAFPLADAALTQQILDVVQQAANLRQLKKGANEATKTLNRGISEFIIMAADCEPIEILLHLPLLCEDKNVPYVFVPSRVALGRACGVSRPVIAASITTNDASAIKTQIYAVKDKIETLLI
Kd [1] [µM],SMM binding signal [2],binding [3],KD [4] [µM],binding [5],SMM binding signal [7],binding [8],ΔTm [9],binding [10],Molecule,other results
50.3 ± 1.3,negative results,yes,50.3 ± 1.3,yes,positive binding signals,yes,-1.5 ± 0.5 °C,no,Cc1ccc(-n2ncc3c(NCCCN(C)C)ncnc32)cc1Cl [Compound 1],binding [6]: yes
30.5 ± 8.4,negative results,yes,30.5 ± 8.4,yes,positive binding signals,yes,+3.3 ± 0.3 °C,no,CCc1nnc(-c2nnc(NCCCN(C)C)c3ccccc23)o1 [Compound 2],
,,,,,,,,,CC[C@@]1(O)C(=O)OCc2c1cc1n(c2=O)Cc2cc3c(CN(C)C)c(O)ccc3nc2-1 [topotecan],effect on NHP2L1-U4 5′ SL interaction [19]: inhibit the interaction; also recorded: disrupts the binding
,,,,,,,,,U4/U6 snRNA 92 nt construct (structured_RNA) RNA: GGCCUUAUGCACGGGAAAUACGCAUAUCAGUGAGGAUUCGUCCGAGAUUGUGUUUUUGCUGGUGUAAAUCAGCAGUUCCCCUGCAUAAGGCU,Kd (Snu13): 0.062 ± 0.004 µM

Molecule,Kd [1] [µM],SMM binding signal [2],binding [3],KD [4] [µM],binding [5],SMM binding signal [7],binding [8],ΔTm [9],binding [10],other results
CN(C)CCNc1nnc(-c2nc(-c3ccc(F)cc3)no2)c2ccccc12 [Compound 22],3.9 ± 2.2,,,3.9 ± 2.2,,,,,,binding [11]: no; Kd [12]: 9.1 ± 0.6 µM; binding [13]: yes; SPR binding to 79 nt RNA [14]: did not show any binding; IC50 [15]: 3.2 ± 0.4 µM; KD [16]: 9.1 ± 0.6 µM; IC50 [17]: 3.2 ± 0.4 µM; fold weaker Snu13 affinity [18]: 13 fold
